Source: paper PMC9697930 (International Journal of Molecular Sciences, 2022)
Read-outs that look alike come from different tables or passages of the source.

Legend:
MDCKII-parent = assay: MTT proliferation / drug combination assay; assay type: cell-based, Canine; conditions: Canis lupus familiaris, 48 h
Protocol: (§1) The viability MTT assay was employed in several experimental sets, including induction studies, comparative viability assays, and drug combinations. First, 1.3 × 10^4 (MDCKII sublines), 1.2 × 10^4 (A431 sublines), 1.5 × 10^4 (MCF-7), and 1.0 × 10^4 (primary NSCLC explants) cells were seeded in 96-well plates. After seeding, cells were left to refresh in incubator for 24 h. Secondly, the medium was removed, and the serial dilutions of the drugs or drug combinations were added to the cells. Next to these variants, a medium with 40% DMSO and vehicle-containing media were tested as nonviable and unaffected viability controls, respectively. After an additional 48 h of incubation, the cells were washed with 1 × PBS and then treated with 1 mg/mL MTT solution in Opti-MEM. Subsequently, cells were incubated for 60 min under standard conditions. After MTT treatment, generated formazan crystals were solubilized with DMSO for 10 min. Wavelengths of 570 nm (formazan) and 690 nm (background) were used for absorbance measurements using a microplate reader Infinite 200 Pro NanoQuant (Tecan, Männedorf, Switzerland).
(§2) In vitro cell lines (MDCKII and A431) and primary NSCLC explants were seeded (see densities above) in 96-well plates and incubated for 24 h. […] Combined cells were incubated with the tested compounds for 48 h, and subsequently, MTT assay was performed to assess cell viability as described above. Besides IC50-shift analysis, CompuSyn 3.0.1 software (ComboSyn Inc., Paramus, NJ, USA) was used for the additional analysis of obtained data. This software works with the algorithms of the combination index (CI) method of Chou–Talalay, which is frequently used for the accurate quantification of drug combinations’ outcomes. According to the CI method principle, the combination effects were separated into three categories, including synergistic (CI < 0.9), additive (CI between 0.9–1.1), or antagonistic (CI > 1.1) ones.

A431-parent = assay: MTT proliferation / drug combination assay; assay type: cell-based; conditions: Homo sapiens, 48 h
Protocol: as §1, §2

[1] = MTT proliferation / drug combination assay; assay type: cell-based, Canine; conditions: dog, MDCKII-ABCG2 cells; read-out: IC50
Protocol: as §1, §2

A431-ABCG2 = assay: MTT proliferation / drug combination assay; assay type: cell-based; conditions: Homo sapiens, 48 h; read-out: IC50
Protocol: as §1, §2

Compound | IC50 (MDCKII-parent) [µM] | IC50 (A431-parent) [µM] | IC50 at 48 h [1] [µM] | IC50 (MDCKII-parent; read-out: IC50) [µM] | IC50 (A431-parent; read-out: IC50) [µM] | IC50 (A431-ABCG2) [µM]
COc1cccc2c1C(=O)c1c(O)c3c(c(O)c1C2=O)C[C@@](O)(C(C)=O)C[C@@H]3O[C@H]1C[C@H](N)[C@H](O)[C@H](C)O1 [daunorubicin] | 1 | 1.11 |  |  |  | 
O=C1c2c(O)ccc(O)c2C(=O)c2c(NCCNCCO)ccc(NCCNCCO)c21 [mitoxantrone] |  |  | 12.1 | 1.48 | 0.88 | 10
